# Calls of active or inactive are those of the source. The calls are words filed in the database; no cut-off is given here.
# Legend:
# Leishmania donovani [1] = test: Potency index, ratio of amphotericin B EC50 to test compound EC50 for antileishmanial activity against Leishmania […] amastigote infected in THP1 cells; assay type: functional
# Leishmania donovani [2] = test: Antileishmanial activity against Leishmania donovani MHOM/ET/67/HU3 promastigote after 72 hrs by MTT assay; assay type: functional, organism-based; settings: MHOM/ET/67/HU3, 72 h
# [3] = Selectivity index, ratio of EC50 for cytotoxicity against human THP1 cells to EC50 for antileishmanial activity against Leishmania donovani MHOM/ET/67/HU3 amastigotes infected in human THP1 cells; assay type: toxicity, cell-based; settings: read-out: Ratio EC50
# Leishmania donovani [4] = test: Antileishmanial activity against Leishmania donovani MHOM/ET/67/HU3 intracellular amastigotes infected in human THP1 cells after 96 hrs by prolong-gold antifade-reagent/DAPI staining based assay; assay type: functional, organism-based; settings: MHOM/ET/67/HU3, THP-1, 96 h
# THP-1 = test: Cytotoxicity against human THP1 cells assessed as reduction in cell viability after 72 hrs by MTT assay; assay type: cell-based; settings: THP-1, 72 h
# [5] = Selectivity index, ratio of EC50 for cytotoxicity against human MRC5 cells to EC50 for antileishmanial activity against Leishmania donovani MHOM/ET/67/HU3 amastigotes infected in human THP1 cells; assay type: toxicity, cell-based; settings: read-out: Ratio EC50
# Leishmania infantum [6] = test: Antileishmanial activity against Sb 3 resistant Leishmania infantum LEM 3329 isolate promastigote after 72 hrs by MTT assay; assay type: functional, organism-based
# Leishmania infantum [7] = test: Antileishmanial activity against MIL/paromomycin resistant Leishmania infantum LEM 2126 isolate promastigote after 72 hrs by MTT assay; assay type: functional, organism-based
# Leishmania infantum [8] = test: Antileishmanial activity against MIL/paromomycin resistant Leishmania infantum LEM 2126 isolate intracellular amastigotes infected in human THP1 cells after 96 hrs by prolong-gold antifade-reagent/DAPI staining based assay; assay type: functional, organism-based; settings: THP-1, 96 h
# Leishmania infantum [9] = test: Antileishmanial activity against Leishmania infantum LEM 3049 isolate intracellular amastigotes infected in human THP1 cells after 96 hrs by prolong-gold antifade-reagent/DAPI staining based assay; assay type: functional, organism-based; settings: THP-1, 96 h
# Leishmania infantum [10] = test: Antileishmanial activity against MIL resistant Leishmania infantum LEM 5159 isolate promastigote after 72 hrs by MTT assay; assay type: functional, organism-based
# Leishmania infantum [11] = test: Antileishmanial activity against Leishmania infantum LEM 3049 isolate promastigote after 72 hrs by MTT assay; assay type: functional, organism-based
# Leishmania infantum [12] = test: Antileishmanial activity against Sb 3 resistant Leishmania infantum LEM 3329 isolate intracellular amastigotes infected in human THP1 cells after 96 hrs by prolong-gold antifade-reagent/DAPI staining based assay; assay type: functional, organism-based; settings: THP-1, 96 h
# Leishmania infantum [13] = test: Antileishmanial activity against MIL resistant Leishmania infantum LEM 5159 isolate intracellular amastigotes infected in human THP1 cells after 96 hrs by prolong-gold antifade-reagent/DAPI staining based assay; assay type: functional, organism-based; settings: THP-1, 96 h
# in vitro = settings: human, microsomes
# Description: Half life in human liver microsomes at 20 to 40 uM measured for 120 mins in presence of NADPH by RP-HPLC analysis
# [14] = Metabolic stability in human liver S9 fraction at 5 to 10 uM measured for 120 mins in presence of NADPH by RP-HPLC analysis; assay type: ADME, subcellular; settings: s9, 2 h
# Leishmania infantum [15] = test: Antileishmanial activity against Leishmania infantum LEM 3049 isolate promastigotes assessed as decrease in ATP level at 0.02 uM after 120 mins by CellTiter-Glo luminescence assay relative to control; assay type: functional; set-up: scale not given: the % may be the effect or the level left
# [16] = Drug concentration in BALB/c mouse spleen infected with Leishmania infantum LEM 3049 isolate promastigotes at 1.5 mg/kg, po administered for 4 days and measured 2 days post last dose by HPLC analysis; settings: in vivo, 48 h, BLD = below limit of detection
# [17] = Drug concentration in BALB/c mouse liver infected with Leishmania infantum LEM 3049 isolate promastigotes at 1.5 mg/kg, po administered for 4 days and measured 2 days post last dose by HPLC analysis; settings: in vivo, 48 h, BLD = below limit of detection
# [18] = Plasma concentration in BALB/c mouse infected with Leishmania infantum LEM 3049 isolate promastigotes at 1.5 mg/kg, po administered for 4 days and measured 2 days post last dose by HPLC analysis; settings: in vivo, 48 h, BLD = below limit of detection
# Leishmania infantum [19] = test: Antileishmanial activity against Leishmania infantum LEM 3049 isolate promastigotes infected in BALB/c mouse assessed as reduction in parasite burden in liver at 1.5 mg/kg, po administered for 4 days and measured 2 days post last dose by light microscopic method relative to control; set-up: scale not given: the % may be the effect or the level left
# [20] = Half life in CD-1 mouse liver microsomes at 5 to 10 uM measured for 120 mins in presence of NADPH by RP-HPLC analysis; assay type: ADME, Microsome
# Leishmania infantum [21] = test: Antileishmanial activity against Leishmania infantum LEM 3049 isolate promastigotes infected in BALB/c mouse assessed as reduction in parasite burden in spleen at 1.5 mg/kg, po administered for 4 days and measured 2 days post last dose by light microscopic method relative to control; set-up: scale not given: the % may be the effect or the level left
# Leishmania infantum [22] = test: Induction of mitochondrial membrane potential loss in Leishmania infantum LEM 3049 isolate promastigotes at 0.02 uM after 30 mins by JC-1 dye based flow cytometric analysis relative to control; assay type: functional
# [23] = Primary phase half life in BALB/c mouse at 20 mg/kg, po measured for < 6 hrs by HPLC analysis; assay type: ADME, organism-based; settings: in vivo, read-out: alphat1/2 (converted)
# [24] = Solubility of the compound in water; assay type: physicochemical; settings: buffer
# [25] = Half life in CD-1 mouse liver microsomes at 10 to 20 uM measured for 120 mins in presence of UDPGA by RP-HPLC analysis; assay type: ADME, Microsome
# [26] = Acute toxicity in BALB/c mouse at 20 mg/kg, po; assay type: organism-based; settings: in vivo
# Leishmania infantum [27] = test: Induction of plasma membrane permeabilization in Leishmania infantum LEM 3049 isolate promastigotes 0.02 to 1 uM incubated for 2 hrs by SYTOX Green based flow cytometric analysis; assay type: functional, organism-based
# Leishmania infantum [28] = test: Induction of plasma membrane depolarization in Leishmania infantum LEM 3049 isolate promastigotes incubated for 2 hrs by DiBAC4(3) probe based flow cytometric analysis; assay type: functional, organism-based
# [29] = Tmax in BALB/c mouse at 20 mg/kg, po measured for up to 72 hrs by HPLC analysis; assay type: ADME, organism-based; settings: in vivo
# [30] = Metabolic stability in human liver S9 fraction at 10 to 20 uM measured for 120 mins in presence of UDPGA by RP-HPLC analysis; assay type: ADME, subcellular; settings: s9, 2 h
# Leishmania infantum [31] = test: Antileishmanial activity against Leishmania infantum LEM 3049 isolate promastigotes assessed as decrease in ATP level at 0.02 to 1 uM after 30 mins by CellTiter-Glo luminescence assay relative to control; assay type: functional; set-up: scale not given: the % may be the effect or the level left
# [32] = Half life in human liver microsomes at 10 to 20 uM measured for 120 mins in presence of UDPGA by RP-HPLC analysis; assay type: ADME, Microsome
# [33] = Apparent terminal half life in BALB/c mouse at 20 mg/kg, po measured for 6 to 72 hrs by HPLC analysis; assay type: ADME, organism-based; settings: in vivo, read-out: betat1/2(app) (converted)
# Leishmania infantum [34] = test: Induction of ROS generation in Leishmania infantum LEM 3049 isolate promastigotes at 1 uM after 2 hrs by H2DCFDA staining based flow cytometric analysis relative to control; assay type: functional
# [35] = Thermodynamic solubility of the compound in 5% gamma-cyclodextrin in water (w/w) colloidal suspension; assay type: physicochemical; settings: read-out: Therm_solubility
# Leishmania infantum [36] = test: Antileishmanial activity against Leishmania infantum LEM 3049 isolate promastigotes assessed as decrease in ATP level at 0.1 uM after 120 mins by CellTiter-Glo luminescence assay relative to control; assay type: functional; set-up: scale not given: the % may be the effect or the level left
# Leishmania infantum [37] = test: Induction of apoptosis in Leishmania infantum LEM 3049 isolate promastigotes assessed as DNA fragmentation at 0.02 to 5 uM after 4 hrs by TUNEL assay; assay type: functional, organism-based
# Leishmania infantum [38] = test: Antileishmanial activity against Leishmania infantum LEM 3049 isolate promastigotes assessed as decrease in ATP level at 1 uM after 120 mins by CellTiter-Glo luminescence assay relative to control; assay type: functional; set-up: scale not given: the % may be the effect or the level left
# [39] = Half life in human liver microsomes at 5 to 10 uM measured for 120 mins in presence of NADPH by RP-HPLC analysis; assay type: ADME, Microsome
# Leishmania infantum [40] = test: Induction of mitochondrial membrane potential loss in Leishmania infantum LEM 3049 isolate promastigotes at 1 uM after 24 hrs by JC-1 dye based flow cytometric analysis relative to control; assay type: functional
# [41] = Plasma concentration in BALB/c mouse infected with Leishmania infantum LEM 3049 isolate promastigote at 1.5 mg/kg, po for 4 days by HPLC analysis
# [42] = Cmax in BALB/c mouse at 20 mg/kg, po measured for up to 72 hrs by HPLC analysis; assay type: ADME, organism-based; set-up: dose 20 mg/kg, route oral; settings: in vivo
structure (smiles),measurement,setting,value
Cc1cc(O)ccc1C(=O)CCCCCCCCCCCCCCC[P+](c1ccccc1)(c1ccccc1)c1ccccn1.[Br-],Ratio EC50,Leishmania donovani [1],2
same,EC50,Leishmania donovani [2],280 nM
same,selectivity ratio,[3],21.1
same,EC50,Leishmania donovani [4],100 nM
same,EC50,THP-1,2110 nM
COC(=O)c1ccc(OCCCCCCCCCCCCCC[P+](c2ccccc2)(c2ccccc2)c2ccccc2)cc1C,EC50,Leishmania donovani [4],< 1000 nM
same,selectivity ratio,[5],2 to 27
Cc1cc(O)ccc1C(=O)OCCCCCCCCCCCCCC[P+](c1ccccc1)(c1ccccc1)c1ccccn1,EC50,Leishmania donovani [2],180 nM
same,selectivity ratio,[3],19.6
same,EC50,Leishmania donovani [4],120 nM
same,EC50,THP-1,2350 nM
O=C(OCCCCCCCCCCCCCC[P+](c1ccccc1)(c1ccccc1)c1ccccc1)c1ccc(O)cc1O,EC50,Leishmania donovani [2],40 nM
same,selectivity ratio,[3],27.6
same,EC50,Leishmania donovani [4],110 nM
same,EC50,THP-1,3020 nM
O=C(OCCCCCCCCCCCC[P+](c1ccccc1)(c1ccccc1)c1ccccc1)c1ccc(O)cc1O,EC50,Leishmania donovani [2],< 1000 nM
same,selectivity ratio,[3],> 10
same,EC50,Leishmania donovani [4],< 1000 nM
C[C@@H]1[C@H](O)[C@@H](C)/C=C/C=C/C=C/C=C/C=C/C=C/C=C/[C@H](O[C@@H]2O[C@H](C)[C@@H](O)[C@H](N)[C@@H]2O)C[C@@H]2O[C@](O)(C[C@@H](O)C[C@@H](O)[C@H](O)CC[C@@H](O)C[C@@H](O)CC(=O)O[C@H]1C)C[C@H](O)[C@H]2C(=O)O [AMPHOTERICIN B],EC50,Leishmania infantum [6],70 nM
same,EC50,Leishmania infantum [7],100 nM
same,EC50,Leishmania infantum [8],160 nM
same,EC50,Leishmania donovani [2],130 nM
same,EC50,Leishmania infantum [9],170 nM
same,selectivity ratio,[3],116
same,EC50,Leishmania infantum [10],50 nM
same,EC50,Leishmania infantum [11],60 nM
same,EC50,Leishmania donovani [4],240 nM
same,EC50,Leishmania infantum [12],180 nM
same,EC50,Leishmania infantum [13],160 nM
same,EC50,THP-1,27800 nM
O=C(O)Cc1ccccc1Nc1c(Cl)cccc1Cl [DICLOFENAC],"half-life at 2 h, 40 µM",in vitro,< 0.5 h
O=C(O)c1ccc(OCCCCCCCCCCCCCC[P+](c2ccccc2)(c2ccccc2)c2ccccc2)cc1O,EC50,Leishmania donovani [2],< 200 nM
same,EC50,Leishmania donovani [4],< 200 nM
same,selectivity ratio,[5],2 to 27
O=C(CCCCCCCCCCCCCCC[P+](c1ccccc1)(c1ccccc1)c1ccccc1)c1ccc(O)cc1O.[Br-],Stability,[14],Stable
same,Activity,Leishmania infantum [15],91%
same,Drug uptake,[16],Bld
same,Drug uptake,[17],Bld
same,Ratio EC50,Leishmania donovani [1],2
same,Cp,[18],Bld
same,Activity,Leishmania infantum [19],95.3%
same,half-life,[20],< 0.5 h
same,Activity,Leishmania infantum [21],98.9%
same,Activity,Leishmania infantum [22],86%
same,EC50,Leishmania infantum [6],100 nM
same,half-life,[23],1 h
same,solubility,[24],Insoluble
same,half-life at up to 20 µM,[25],< 0.5 h
same,Activity,[26],Toxic
same,Activity,Leishmania infantum [27],inactive
same,Activity,Leishmania infantum [28],Dose-dependent effect
same,EC50,Leishmania infantum [7],120 nM
same,Tmax,[29],1 h
same,EC50,Leishmania infantum [8],140 nM
same,Stability,[30],Stable
same,Activity,Leishmania infantum [31],50 - 74%
same,half-life at up to 20 µM,[32],> 2 h
same,half-life,[33],23 h
same,EC50,Leishmania donovani [2],70 nM
same,fold change (FC),Leishmania infantum [34],8
same,solubility thermodynamic,[35],520 µg/mL
same,EC50,Leishmania infantum [9]; read-out: EC50,120 nM
same,selectivity ratio,[3],31.2
same,Activity,Leishmania infantum [36],89%
same,Activity,Leishmania infantum [37],inactive
same,EC50,Leishmania infantum [10],110 nM
same,EC50,Leishmania infantum [11],80 nM
same,Activity,Leishmania infantum [38],87%
same,EC50,Leishmania donovani [4],90 nM
same,half-life,[39],> 2 h
same,Activity,Leishmania infantum [40],97%
same,concentration at 96 h,[41],> 0.09 µM
same,EC50,Leishmania infantum [12],150 nM
same,EC50,Leishmania infantum [13],140 nM
same,Cmax,[42],182 µM
same,EC50,THP-1,2810 nM
CCCCCCCCCCCCCCCCOP(=O)([O-])OCC[N+](C)(C)C [MILTEFOSINE],EC50,Leishmania donovani [2],6510 nM
same,selectivity ratio,[3],28.8
same,EC50,Leishmania donovani [4],910 nM
same,EC50,THP-1,26200 nM

# — ChEMBL document CHEMBL4334518, “Discovery and Pharmacological Studies of 4-Hydroxyphenyl-Derived Phosphonium Salts Active in a Mouse Model of Visceral Leishmaniasis” (J Med Chem, 2019)
